Measurements: patent US20240059671A1, “TYROSINE KINASE 2 (TYK2) DEGRADATION COMPOUNDS AND METHODS OF USE” (CULLGEN (SHANGHAI), INC., priority 2020, published 2024)

Target: TYK2 (Homo sapiens, UniProt P29597)
Test: TYK2 protein degradation in MOLT-4 cells by immunoblotting
Type: cell-based
Parameters: endogenous in cells; host or cells: MOLT-4
Details: MOLT-4 cells, 24 hours
In short: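 MOLT-4 cells were exposed to compounds at 0.5 and 5 μM for 24 h, then lysed in RIPA buffer with protease and phosphatase inhibitors. TYK2 was detected by SDS-PAGE immunoblot with chemiluminescence, and band densitometry gave percent degradation.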

Chain of TYK2 (P29597 whole entry): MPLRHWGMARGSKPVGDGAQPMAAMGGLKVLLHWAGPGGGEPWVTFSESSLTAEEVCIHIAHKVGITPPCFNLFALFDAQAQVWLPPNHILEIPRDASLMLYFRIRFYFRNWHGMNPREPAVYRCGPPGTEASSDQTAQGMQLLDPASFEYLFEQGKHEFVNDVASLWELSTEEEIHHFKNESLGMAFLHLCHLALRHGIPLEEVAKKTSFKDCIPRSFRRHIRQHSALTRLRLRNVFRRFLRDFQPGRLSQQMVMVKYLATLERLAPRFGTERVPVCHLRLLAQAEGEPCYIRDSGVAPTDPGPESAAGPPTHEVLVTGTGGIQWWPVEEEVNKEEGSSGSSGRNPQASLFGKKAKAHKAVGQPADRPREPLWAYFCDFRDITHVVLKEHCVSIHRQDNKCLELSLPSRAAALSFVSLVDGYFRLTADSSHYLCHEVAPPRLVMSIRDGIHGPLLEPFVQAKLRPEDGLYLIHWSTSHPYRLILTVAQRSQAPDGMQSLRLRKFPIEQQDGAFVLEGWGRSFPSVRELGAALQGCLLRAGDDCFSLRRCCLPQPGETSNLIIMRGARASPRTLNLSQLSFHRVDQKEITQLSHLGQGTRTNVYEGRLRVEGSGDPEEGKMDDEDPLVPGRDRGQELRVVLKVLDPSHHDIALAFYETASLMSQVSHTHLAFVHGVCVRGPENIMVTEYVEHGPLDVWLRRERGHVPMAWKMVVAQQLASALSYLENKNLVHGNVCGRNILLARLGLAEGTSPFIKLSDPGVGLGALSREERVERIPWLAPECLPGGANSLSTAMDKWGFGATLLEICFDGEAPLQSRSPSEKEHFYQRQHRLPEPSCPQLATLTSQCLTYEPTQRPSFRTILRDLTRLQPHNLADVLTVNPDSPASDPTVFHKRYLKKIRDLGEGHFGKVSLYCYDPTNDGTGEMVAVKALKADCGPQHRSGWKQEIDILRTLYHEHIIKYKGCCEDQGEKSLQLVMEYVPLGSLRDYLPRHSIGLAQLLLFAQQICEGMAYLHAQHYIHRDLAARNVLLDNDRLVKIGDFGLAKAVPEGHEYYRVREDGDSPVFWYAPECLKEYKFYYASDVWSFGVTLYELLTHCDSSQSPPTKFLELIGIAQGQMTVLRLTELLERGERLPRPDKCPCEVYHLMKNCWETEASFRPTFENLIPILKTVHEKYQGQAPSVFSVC

| Compound | TYK2 Degradation (0.5 μM) | TYK2 Degradation (5 μM) | TYK2 Degradation (MOLT-4, 0.5 μM) | TYK2 Degradation (MOLT-4, 5 μM) |
| --- | --- | --- | --- | --- |
| CNC(=O)c1nnc(NC(=O)C2CC2)cc1Nc1cccc(-c2ncn(CCNC(=O)CCOCCOCCOCCOCCC(=O)N[C@H](C(=O)N3C[C@H](O)C[C@H]3C(=O)NCc3ccc(-c4scnc4C)cc3)C(C)(C)C)n2)c1OC [CPD-072, N^1-(2-(3-(3-((6-(Cyclopropanecarboxamido)-3-(methylcarbamoyl)pyridazin-4-yl)amino)-2-methoxyphenyl)-1H-1,2,4-triazol-1-yl)ethyl)-N^16-((S)-1-((2S,4R)-4-hydroxy-2-((4-(4-methylthiazol-5-yl)benzyl)carbamoyl)pyrrolidin-1-yl)-3,3-dimethyl-1-oxobutan-2-yl)-4,7,10,13-tetraoxahexadecanediamide] | ≤20% | ≤20% |  |  |
| CNC(=O)c1nnc(NC(=O)CNC(=O)CCCCCCCCNC(=O)C[C@H](NC(=O)[C@@H]2C[C@@H](O)CN2C(=O)[C@@H](NC(=O)C2(F)CC2)C(C)(C)C)c2ccc(-c3scnc3C)cc2)cc1Nc1cccc(-c2ncn(C)n2)c1OC [CPD-093, 6-(2-(9-((S)-3-((2S,4R)-1-((S)-2-(1-Fluorocyclopropane-1-carboxamido)-3,3-dimethylbutanoyl)-4-hydroxypyrrolidine-2-carboxamido)-3-(4-(4-methylthiazol-5-yl)phenyl)propanamido)nonanamido)acetamido)-4-((2-methoxy-3-(1-methyl-1H-1,2,4-triazol-3-yl)phenyl)amino)-N-methylpyridazine-3-carboxamide] |  |  | C (C: ≤20% TYK2 degradation) | C (C: ≤20% TYK2 degradation) |
| CNC(=O)c1nnc(NC(=O)CNC(=O)CCOCCOCCOCCOCCOCCNc2cccc3c2C(=O)N(C2CCC(=O)NC2=O)C3=O)cc1Nc1cccc(-c2ncn(C)n2)c1OC (centres unmarked) [CPD-053, 6-(1-((2-(2,6-Dioxopiperidin-3-yl)-1,3-dioxoisoindolin-4-yl)amino)-18-oxo-3,6,9,12,15-pentaoxa-19-azahenicosan-21-amido)-4-((2-methoxy-3-(1-methyl-1H-1,2,4-triazol-3-yl)phenyl)amino)-N-methylpyridazine-3-carboxamide] | ≤20% | ≤20% |  |  |
| CNC(=O)c1nnc(NC(=O)CNC(=O)CCCCCC(=O)N[C@H](C(=O)N2C[C@H](O)C[C@H]2C(=O)NCc2ccc(-c3scnc3C)cc2)C(C)(C)C)cc1Nc1cccc(-c2ncn(C)n2)c1OC [CPD-037, N^1—((S)-1-((2S,4R)-4-Hydroxy-2-((4-(4-methylthiazol-5-yl)benzyl)carbamoyl)pyrrolidin-1-yl)-3,3-dimethyl-1-oxobutan-2-yl)-N^7-(2-((5-((2-methoxy-3-(1-methyl-1H-1,2,4-triazol-3-yl)phenyl)amino)-6-(methylcarbamoyl)pyridazin-3-yl)amino)-2-oxoethyl)heptanediamide] | ≤20% | 30% |  |  |
| CNC(=O)c1nnc(NC(=O)CNC(=O)CCOCCNc2ccc3c(c2)C(=O)N(C2CCC(=O)NC2=O)C3=O)cc1Nc1cccc(-c2ncn(C)n2)c1OC (centres unmarked) [CPD-061, 6-(2-(3-(2-((2-(2,6-Dioxopiperidin-3-yl)-1,3-dioxoisoindolin-5-yl)amino)ethoxy)propanamido)acetamido)-4-((2-methoxy-3-(1-methyl-1H-1,2,4-triazol-3-yl)phenyl)amino)-N-methylpyridazine-3-carboxamide] | ≤20% | ≤20% |  |  |
| CNC(=O)c1nnc(NC(=O)CNC(=O)CCCCCOc2cc(-c3scnc3C)ccc2CNC(=O)[C@@H]2C[C@@H](O)CN2C(=O)[C@@H](NC(=O)C2(F)CC2)C(C)(C)C)cc1Nc1cccc(-c2ncn(C)n2)c1OC [CPD-105, 6-(2-(6-(2-(((2S,4R)-1-((S)-2-(1-Fluorocyclopropane-1-carboxamido)-3,3-dimethylbutanoyl)-4-hydroxypyrrolidine-2-carboxamido)methyl)-5-(4-methylthiazol-5-yl)phenoxy)hexanamido)acetamido)-4-((2-methoxy-3-(1-methyl-1H-1,2,4-triazol-3-yl)phenyl)amino)-N-methylpyridazine-3-carboxamide] |  |  | C (C: ≤20% TYK2 degradation) | C (C: ≤20% TYK2 degradation) |
| CNC(=O)c1nnc(Nc2ccc(N3CCN(C(=O)CCC(=O)N[C@H](C(=O)N4C[C@H](O)C[C@H]4C(=O)NCc4ccc(-c5scnc5C)cc4)C(C)(C)C)CC3)cn2)cc1Nc1cccc(-c2ncn(C)n2)c1OC [CPD-096, 6-((5-(4-(4-(((S)-1-((2S,4R)-4-Hydroxy-2-((4-(4-methylthiazol-5-yl)benzyl)carbamoyl)pyrrolidin-1-yl)-3,3-dimethyl-1-oxobutan-2-yl)amino)-4-oxobutanoyl)piperazin-1-yl)pyridin-2-yl)amino)-4-((2-methoxy-3-(1-methyl-1H-1,2,4-triazol-3-yl)phenyl)amino)-N-methylpyridazine-3-carboxamide] |  |  | B (B: <60% TYK2 degradation, and >20% TYK2 degradation) | C (C: ≤20% TYK2 degradation) |
| CNC(=O)c1nnc(NC(=O)C2CC2)cc1Nc1cccc(-c2ncn(CCNC(=O)CCOCCOCCC(=O)N[C@H](C(=O)N3C[C@H](O)C[C@H]3C(=O)NCc3ccc(-c4scnc4C)cc3)C(C)(C)C)n2)c1OC [CPD-069, 6-(Cyclopropanecarboxamido)-4-((3-(1-((S)-15-((2S,4R)-4-hydroxy-2-((4-(4-methylthiazol-5-yl)benzyl)carbamoyl)pyrrolidine-1-carbonyl)-16,16-dimethyl-4,13-dioxo-7,10-dioxa-3,14-diazaheptadecyl)-1H-1,2,4-triazol-3-yl)-2-methoxyphenyl)amino)-N-methylpyridazine-3-carboxamide] | ≤20% | ≤20% |  |  |
| CNC(=O)c1nnc(NC(=O)CNC(=O)CCCCOc2cc(-c3scnc3C)ccc2CNC(=O)[C@@H]2C[C@@H](O)CN2C(=O)[C@@H](NC(=O)C2(F)CC2)C(C)(C)C)cc1Nc1cccc(-c2ncn(C)n2)c1OC [CPD-104, 6-(2-(5-(2-(((2S,4R)-1-((S)-2-(1-Fluorocyclopropane-1-carboxamido)-3,3-dimethylbutanoyl)-4-hydroxypyrrolidine-2-carboxamido)methyl)-5-(4-methylthiazol-5-yl)phenoxy)pentanamido)acetamido)-4-((2-methoxy-3-(1-methyl-1H-1,2,4-triazol-3-yl)phenyl)amino)-N-methylpyridazine-3-carboxamide] |  |  | C (C: ≤20% TYK2 degradation) | C (C: ≤20% TYK2 degradation) |
| CNC(=O)c1nnc(NC(=O)CNC(=O)CCCCCCCNc2cccc3c2C(=O)N(C2CCC(=O)NC2=O)C3=O)cc1Nc1cccc(-c2ncn(C)n2)c1OC (centres unmarked) [CPD-048, 6-(2-(8-((2-(2,6-Dioxopiperidin-3-yl)-1,3-dioxoisoindolin-4-yl)amino)octanamido)acetamido)-4-((2-methoxy-3-(1-methyl-1H-1,2,4-triazol-3-yl)phenyl)amino)-N-methylpyridazine-3-carboxamide] | 50% | ≤20% |  |  |
